For this experiment, the system named is A. castellanii. Nature of the experiment: alamarBlue assay of susceptibility of A. castellanii to glyphosate. Format: cell-based. As to conditions: Acanthamoeba castellanii; A. castellanii (Neff strain) trophozoites, 96 hr incubation, glyphosate 9 mM to 0.27 μM, FIG. 1; read-out: IC50 (inhibition of A. castellanii, percent alamarBlue reduction relative to untreated control cultures). Here is the method:
Acanthamoeba polyphaga (Strain No. 1501/18) were obtained from CCAP (Cumbria, UK). Acanthamoeba castellanii (Neff strain) was kindly obtained from Keith Vickerman (Glasgow, UK). A. castellanii and A. polyphaga trophozoites were grown in (a) Rich media containing […] (Fluka, UK) and 0.9% maltose (Sigma, UK) and supplemented with 1% Penicillin, Streptomycin and Amphotericin B (All Sigma, UK) or (b) modified 11 containing 20% Rich media. Acanthamoeba spp. were incubated at room temperature in 75 cm^2 tissue culture flasks until 90-95% confluence, then harvested or sub-cultured using Accutase (Sigma, UK).
The susceptibility of the A. castellanii to glyphosate as assessed by the almarBlue assay. The susceptibility of A. castellanii to glyphosate was determined by a modification of the method described by McBride et al., (2005). A. castellanii cells were grown in 75 cm^2 flasks until 90-95% confluence and harvested using Accutase (Sigma, UK). […] AlamarBlue reduction was assessed as previously described. The percent inhibition of almarBlue reduction was calculated using the formula: (εox)λAλ1−(εox)λ1Aλ. of treated Acanthamoeba/(εox)λA°λ1−(εox)λ1A°λ of untreated Acanthamoeba×100
[where: °λ1=absorbance of untreated control with alamarBlue at 570 nm); °λ2=absorbance of untreated control with alamarBlue at 600 nm)]. […]
On the technique in general: Resazurin is reduced to fluorescent resorufin, in cell work by metabolically active cells.

Usually IC50 stands for the concentration that gives 50% inhibition.

For `O=C(O)CNCP(=O)(O)O` [Glyphosate, N-(phosphonomethyl)glycine], the IC50 is 2.19 to 4.39 µM.

The values above are taken from patent publication US7972610B2, “Antimicrobial compounds” (University of Strathclyde, priority 2005, dated 2011).
